Legend:
[1] = organism: Homo sapiens; test: Inhibition of human recombinant beta-tryptase assessed as remaining enzyme activity at 10 uM pre-incubated for 3 hrs before N-tert-butoxycarbonyl-Gln-Ala-Arg-AMC substrate addition and measured after 8 hrs by spectrometry relative to control
[2] = Inhibition of beta-tryptase in human HMC1 cells assessed as effect on A23187-induced degranulation; type: cell-based
[3] = Inhibition of beta-tryptase in human HMC1 cells assessed as effect on tryptase activity by measured cell lysis; type: cell-based
[4] = Inhibition of human recombinant beta-tryptase pre-incubated for 3 hrs before N-tert-butoxycarbonyl-Gln-Ala-Arg-AMC substrate addition and measured every 30 secs for 15 mins by spectrometry
[5] = Apparent permeability from apical to basolateral side in MDCK cells; type: ADME, cell-based, Canis lupus familiaris; details: dog
[6] = Effective permeability from apical to basolateral side in PAMPA method; type: ADME; details: read-out: Peff
[7] = Effective permeability assessed as mass retention by PAMPA method; type: ADME
[8] = Dissociation constant, pKa of the compound (NH3*) by pH metric assay; type: physicochemical
[9] = Dissociation constant, pKa of the compound (OH) by UV metric assay; type: physicochemical
[10] = Dissociation constant, pKa of the compound (OH) by pH metric assay; type: physicochemical
[11] = Stability in human liver microsomes assessed as parent compound remaining at 15 uM in presence of NADPH incubated for 60 mins; type: ADME, Microsome; details: liver microsomes, read-out: Stability
[12] = Stability in human liver microsomes assessed as parent compound remaining at 15 uM in absence of NADPH incubated for 60 mins; type: ADME, Microsome; details: liver microsomes, read-out: Stability
[13] = Stability in mouse liver microsomes assessed as parent compound remaining at 15 uM in absence of NADPH incubated for 60 mins; type: ADME, Microsome; details: read-out: Stability
[14] = Stability in rat liver microsomes assessed as parent compound remaining at 15 uM in presence of NADPH incubated for 60 mins; type: ADME, Microsome; details: read-out: Stability
[15] = Stability in rat liver microsomes assessed as parent compound remaining at 15 uM in absence of NADPH incubated for 60 mins; type: ADME, Microsome; details: read-out: Stability
[16] = Stability in mouse liver microsomes assessed as parent compound remaining at 15 uM in presence of NADPH incubated for 60 mins; type: ADME, Microsome; details: read-out: Stability
[17] = molecular target: T1, CYP1A2 (Homo sapiens, UniProt P05177); test: Inhibition of CYP1A2 (unknown origin) at 10 uM relative to control; type: ADME
T1 sequence (P05177 whole entry): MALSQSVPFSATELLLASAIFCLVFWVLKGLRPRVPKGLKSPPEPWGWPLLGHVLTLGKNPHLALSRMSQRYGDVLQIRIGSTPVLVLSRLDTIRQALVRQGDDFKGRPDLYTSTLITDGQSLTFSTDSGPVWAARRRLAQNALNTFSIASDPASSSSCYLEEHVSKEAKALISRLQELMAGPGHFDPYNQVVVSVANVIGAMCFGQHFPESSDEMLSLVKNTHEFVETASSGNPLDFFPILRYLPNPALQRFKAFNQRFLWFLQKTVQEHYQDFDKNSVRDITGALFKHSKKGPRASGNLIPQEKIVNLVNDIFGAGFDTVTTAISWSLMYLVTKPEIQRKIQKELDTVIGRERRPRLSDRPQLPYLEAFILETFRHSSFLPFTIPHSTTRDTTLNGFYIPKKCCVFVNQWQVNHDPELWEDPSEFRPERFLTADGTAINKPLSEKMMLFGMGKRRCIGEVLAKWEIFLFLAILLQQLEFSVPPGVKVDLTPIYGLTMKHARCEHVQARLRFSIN

[18] = molecular target: CYP2D6 (Homo sapiens, UniProt P10635); test: Inhibition of CYP2D6 (unknown origin) at 10 uM relative to control; type: ADME
CYP2D6, sequence (P10635 whole entry): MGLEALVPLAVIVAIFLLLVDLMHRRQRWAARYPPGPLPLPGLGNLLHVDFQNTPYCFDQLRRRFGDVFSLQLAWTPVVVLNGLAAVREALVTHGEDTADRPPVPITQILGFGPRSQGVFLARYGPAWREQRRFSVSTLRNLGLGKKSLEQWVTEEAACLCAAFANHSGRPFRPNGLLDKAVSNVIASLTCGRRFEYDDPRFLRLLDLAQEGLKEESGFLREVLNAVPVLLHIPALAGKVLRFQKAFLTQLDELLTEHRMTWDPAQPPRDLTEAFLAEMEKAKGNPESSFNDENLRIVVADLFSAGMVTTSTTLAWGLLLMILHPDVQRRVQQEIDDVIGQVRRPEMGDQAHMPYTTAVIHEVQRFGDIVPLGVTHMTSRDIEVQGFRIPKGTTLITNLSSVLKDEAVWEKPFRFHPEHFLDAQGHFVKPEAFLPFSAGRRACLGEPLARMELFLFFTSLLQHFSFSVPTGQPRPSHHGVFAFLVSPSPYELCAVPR

[19] = molecular target: CYP3A4 (Homo sapiens, UniProt P08684); test: Inhibition of CYP3A4 (unknown origin) at 10 uM relative to control; type: ADME
CYP3A4, sequence (P08684 whole entry): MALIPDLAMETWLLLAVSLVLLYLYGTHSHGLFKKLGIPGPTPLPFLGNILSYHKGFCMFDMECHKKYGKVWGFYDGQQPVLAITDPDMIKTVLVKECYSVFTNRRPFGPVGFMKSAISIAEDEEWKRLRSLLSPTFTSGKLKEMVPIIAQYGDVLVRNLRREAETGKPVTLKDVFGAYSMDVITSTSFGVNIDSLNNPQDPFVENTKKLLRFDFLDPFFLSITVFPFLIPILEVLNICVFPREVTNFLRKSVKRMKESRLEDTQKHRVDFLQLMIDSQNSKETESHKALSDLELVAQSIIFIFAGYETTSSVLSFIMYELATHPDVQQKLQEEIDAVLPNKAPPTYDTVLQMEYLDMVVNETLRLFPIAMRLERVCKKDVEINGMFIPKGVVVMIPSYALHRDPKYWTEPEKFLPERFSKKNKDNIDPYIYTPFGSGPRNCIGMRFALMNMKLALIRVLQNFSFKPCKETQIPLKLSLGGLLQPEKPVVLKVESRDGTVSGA

[20] = molecular target: CYP2C9 (Homo sapiens, UniProt P11712); test: Inhibition of CYP2C9 (unknown origin) at 10 uM relative to control; type: ADME
CYP2C9, sequence (P11712 whole entry): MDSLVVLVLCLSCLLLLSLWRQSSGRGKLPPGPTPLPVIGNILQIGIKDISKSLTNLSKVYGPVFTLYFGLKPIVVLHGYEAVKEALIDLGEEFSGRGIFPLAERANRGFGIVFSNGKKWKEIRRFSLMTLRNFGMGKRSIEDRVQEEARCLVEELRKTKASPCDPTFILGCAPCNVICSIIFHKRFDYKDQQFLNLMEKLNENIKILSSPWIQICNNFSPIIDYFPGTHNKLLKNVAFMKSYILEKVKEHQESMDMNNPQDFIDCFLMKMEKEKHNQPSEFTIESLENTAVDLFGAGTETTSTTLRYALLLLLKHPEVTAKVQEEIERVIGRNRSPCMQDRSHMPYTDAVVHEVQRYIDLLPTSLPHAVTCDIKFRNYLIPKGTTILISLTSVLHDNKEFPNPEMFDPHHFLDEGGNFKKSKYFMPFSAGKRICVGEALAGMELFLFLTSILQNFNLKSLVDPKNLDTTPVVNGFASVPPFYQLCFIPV

[21] = molecular target: CYP2C19 (Homo sapiens, UniProt P33261); test: Inhibition of CYP2C19 (unknown origin) at 10 uM relative to control; type: ADME
CYP2C19, sequence (P33261 whole entry): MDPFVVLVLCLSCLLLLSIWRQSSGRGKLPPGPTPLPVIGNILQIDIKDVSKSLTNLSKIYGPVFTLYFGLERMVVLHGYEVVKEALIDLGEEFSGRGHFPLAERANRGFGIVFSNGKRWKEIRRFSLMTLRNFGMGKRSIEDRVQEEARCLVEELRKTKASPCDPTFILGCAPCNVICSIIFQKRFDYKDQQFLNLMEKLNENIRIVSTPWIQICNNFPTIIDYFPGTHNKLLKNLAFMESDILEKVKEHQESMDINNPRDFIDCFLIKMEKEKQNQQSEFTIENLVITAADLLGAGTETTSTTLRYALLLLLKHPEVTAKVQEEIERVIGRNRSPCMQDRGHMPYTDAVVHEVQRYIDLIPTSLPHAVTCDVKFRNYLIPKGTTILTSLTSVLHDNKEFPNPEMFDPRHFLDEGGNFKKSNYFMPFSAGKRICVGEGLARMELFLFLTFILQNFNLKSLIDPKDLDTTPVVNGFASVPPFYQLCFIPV

[22] = Plasma concentration in mouse xenografted with human HMC1 cells at 10 mg/kg, iv dosed at time 0 and again 24 hrs later and measured at 0 hrs after second dose by LC-MS/MS analysis; type: ADME, organism-based
[23] = Plasma concentration in mouse xenografted with human HMC1 cells at 10 mg/kg, iv dosed at time 0 and again 24 hrs later and measured at 2 hrs after second dose by LC-MS/MS analysis; type: ADME, organism-based
[24] = Plasma concentration in mouse xenografted with human HMC1 cells at 10 mg/kg, iv dosed at time 0 and again 24 hrs later and measured at 8 hrs after second dose by LC-MS/MS analysis; type: ADME, organism-based
[25] = Plasma concentration in mouse xenografted with human HMC1 cells at 10 mg/kg, iv dosed at time 0 and again 24 hrs later and measured at 24 hrs after second dose by LC-MS/MS analysis; type: ADME, organism-based
[26] = Drug concentration in tumor of mouse xenografted with human HMC1 cells at 10 mg/kg, iv dosed at time 0 and again 24 hrs later and measured at 0 hrs after second dose by LC-MS/MS analysis; type: ADME, organism-based, Neoplasm; details: read-out: Drug uptake
[27] = Drug concentration in tumor of mouse xenografted with human HMC1 cells at 10 mg/kg, iv dosed at time 0 and again 24 hrs later and measured at 2 hrs after second dose by LC-MS/MS analysis; type: ADME, organism-based, Neoplasm; details: read-out: Drug uptake
[28] = Drug concentration in tumor of mouse xenografted with human HMC1 cells at 10 mg/kg, iv dosed at time 0 and again 24 hrs later and measured at 8 hrs after second dose by LC-MS/MS analysis; type: ADME, organism-based, Neoplasm; details: read-out: Drug uptake
[29] = Drug concentration in tumor of mouse xenografted with human HMC1 cells at 10 mg/kg, iv dosed at time 0 and again 24 hrs later and measured at 24 hrs after second dose by LC-MS/MS analysis; type: ADME, organism-based, Neoplasm; details: read-out: Drug uptake
[30] = Drug concentration in tumor of mouse xenografted with human HMC1 cells at 10 mg/kg, iv dosed at time 0 and again 24 hrs later and measured at 48 hrs after second dose by LC-MS/MS analysis; type: ADME, organism-based, Neoplasm; details: read-out: Drug uptake
[31] = Dissociation constant, pKa of the compound (B(OH)2) by UV metric assay; type: physicochemical
[32] = Dissociation constant, pKa of the compound (B(OH)2) by pH metric assay; type: physicochemical

Papp A→B [5]	Papp [6]	Activity [7]	pKa [8]	remaining at 1 h, 15 µM [11]	remaining at 1 h, 15 µM [12]	remaining at 1 h, 15 µM [13]	remaining at 1 h, 15 µM [14]	remaining at 1 h, 15 µM [15]	remaining at 1 h, 15 µM [16]	inhibition at 10 µM [17]	inhibition at 10 µM [18]	inhibition at 10 µM [19]	inhibition at 10 µM [20]	inhibition at 10 µM [21]	Compound	IC50 [4]	other results
–	–	–	–	–	–	–	–	–	–	–	–	–	–	–	NCc1ccc2c(c1)C1(CCN(C(=O)c3cccc(-c4cccc(B5Oc6cc(C(=O)N7CCC8(CC7)COc7ccc(CN)cc78)cc(Cl)c6O5)c4)c3)CC1)CO2	–	Activity [1]: 50%; IC50 [2]: 0.24 µM; IC50 [3]: 5.45 µM
3.1 nm/s	0.1 nm/s	26.3%	9.67	8%	11%	36%	37%	73%	18%	18%	47%	19%	75%	77%	NCc1cccc(C2CCN(C(=O)/C=C/c3ccc(O)c(O)c3)CC2)c1	3.84 µM	pKa [9]: 7.37; pKa [10]: 8.11
–	–	–	–	–	–	–	–	–	–	–	–	–	–	–	NCc1ccc2c(c1)C1(CCN(C(=O)c3cccc(-c4cccc(B(O)O)c4)c3)CC1)CO2.O=C(O)C(F)(F)F	–	concentration at 0 h [22]: 0.00053 µM; concentration at 2 h [23]: 1.29 µM; concentration at 8 h [24]: 0.043 µM; concentration at 24 h [25]: 0.00014 µM; concentration at 0 h [26]: 0.0279 µM; concentration at 2 h [27]: 0.554 µM; concentration at 8 h [28]: 0.107 µM; concentration at 24 h [29]: 0.00214 µM; concentration at 48 h [30]: 0.00056 µM
2.8 nm/s	20.6 nm/s	96.2%	9.53	100%	97%	100%	100%	100%	99%	45%	79%	27%	97%	80%	NCc1cccc(C2CCN(C(=O)c3cccc4ccc(B(O)O)cc34)CC2)c1	15.8 µM	pKa [31]: 8.51; pKa [32]: 8.18
